# Measurements: paper PMC7391767, “Molecular mechanisms underlying menthol binding and activation of TRPM8 ion channel” (Nature Communications, 2020)
# “And” between values parts separate entries of the source, which are not always exact repeats. Equal entries are not always repeated. Where two headings read alike, the source gives them in different places.
# Assays:
# TRPM8 R842K = biological target: T1, TRPM8 R842K (Mus musculus, UniProt Q8R4D5, R842K); test: whole-cell patch-clamp and thermodynamic mutant cycle analysis; format: cell-based
# T1 construct: expressed in transfected cells; host or cells: HEK293T
# T1 sequence (Q8R4D5 whole entry R842K): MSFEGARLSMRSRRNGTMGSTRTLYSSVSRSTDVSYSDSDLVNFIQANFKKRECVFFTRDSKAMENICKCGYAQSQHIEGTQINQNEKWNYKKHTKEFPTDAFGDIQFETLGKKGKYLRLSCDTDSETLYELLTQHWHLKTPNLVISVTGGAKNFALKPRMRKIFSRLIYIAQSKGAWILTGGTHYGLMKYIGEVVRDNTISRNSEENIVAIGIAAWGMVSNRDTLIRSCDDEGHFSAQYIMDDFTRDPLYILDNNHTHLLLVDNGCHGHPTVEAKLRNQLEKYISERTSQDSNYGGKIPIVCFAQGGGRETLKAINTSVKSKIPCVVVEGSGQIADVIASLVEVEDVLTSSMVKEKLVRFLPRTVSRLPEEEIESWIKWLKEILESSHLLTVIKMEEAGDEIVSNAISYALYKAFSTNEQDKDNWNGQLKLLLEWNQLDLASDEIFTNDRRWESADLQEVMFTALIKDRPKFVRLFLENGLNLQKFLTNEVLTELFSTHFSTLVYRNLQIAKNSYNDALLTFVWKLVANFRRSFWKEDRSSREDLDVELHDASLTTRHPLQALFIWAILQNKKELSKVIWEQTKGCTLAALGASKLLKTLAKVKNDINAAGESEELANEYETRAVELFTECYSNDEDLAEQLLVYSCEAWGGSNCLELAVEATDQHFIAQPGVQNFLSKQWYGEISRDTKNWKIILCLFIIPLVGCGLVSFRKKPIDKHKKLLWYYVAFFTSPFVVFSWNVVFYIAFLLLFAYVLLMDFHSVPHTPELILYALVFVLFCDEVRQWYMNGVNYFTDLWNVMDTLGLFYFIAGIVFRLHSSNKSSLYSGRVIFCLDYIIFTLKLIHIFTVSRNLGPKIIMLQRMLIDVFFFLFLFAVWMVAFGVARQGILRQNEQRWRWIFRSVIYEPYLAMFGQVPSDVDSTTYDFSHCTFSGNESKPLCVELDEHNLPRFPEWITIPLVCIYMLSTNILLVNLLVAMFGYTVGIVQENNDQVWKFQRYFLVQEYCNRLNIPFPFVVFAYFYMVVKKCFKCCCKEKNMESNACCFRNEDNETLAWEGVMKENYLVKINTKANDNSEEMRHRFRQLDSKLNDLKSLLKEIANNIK
# Procedure: Murine TRPM8 was used in this study. Point mutations were made by Fast Mutagenesis Kit V2 (SBS Genetech). Primers used to generate point mutations are summarized in Supplementary Table 2.
# HEK293T cells purchased from Kunming Cell Bank, Kunming Institute of Zoology, Chinese Academy of Sciences (ATCC, CRL-3216) were cultured in Dulbecco’s modified Eagle’s medium supplemented with 20 mM L-glutamine and 10% fetal bovine serum. Cells were transiently transfected with cDNA constructs by Lipofectamine 3000 (Life Technologies) following the manufacturer’s protocol. Patch-clamp recordings were performed 1–2 days after transfection.
# (§1) Patch-clamp recordings were performed with a HEKA EPC10 amplifier controlled by PatchMaster software (HEKA). Whole-cell recordings were performed at ±80 mV. Patch pipettes were prepared from borosilicate glass and fire-polished to resistance of ~4 MΩ. For whole-cell recording, serial resistance was compensated by 60%. For single-channel recordings, patch pipettes were fire-polished to a higher resistance of 6-to-10 MΩ and then recorded in the inside-out configuration. To maximize the chance of obtaining a patch with only one channel, single-channel recordings were performed about 8 h after transfection. A solution with 130 mM NaCl, 10 mM glucose, 0.2 mM EDTA, and 3 mM HEPES (pH 7.2) was used in both bath and pipette for either whole-cell or single-channel recordings. Membrane potential was clamped at +80 mV for single-channel recordings. Current was sampled at 10 kHz and filtered at 2.9 kHz. All recordings were performed at room temperature (22 °C) with the maximum variation of 1 °C.
# Ligands such as menthol and its analogs were perfused to membrane patch by a gravity-driven system (RSC-200, Bio-Logic). Bath and ligand solution were delivered through separate tubes to minimize the mixing of solutions. Patch pipette was placed in front of the perfusion tube outlet.
# Data from whole-cell recordings were analyzed in Igor Pro version 6.1 (WaveMatrix). EC50 values were derived from fitting a Hill equation to the concentration–response relationship. […] To distinguish these possibilities, dissociation constant (Kd) for ligand binding was estimated assuming the following gating scheme:1 C0↔KdC1↔LO, where L is the equilibrium constant for the final closed-to-open transition.
# To perform thermodynamic cycle analysis, Kd values of four channel-ligand combinations (WT channel, menthol: Kd _1; Mutant channel, menthol: Kd _2; WT channel, menthol analog: Kd _3; Mutant channel, menthol analog: Kd _4) were determined separately. The strength of coupling was determined by the coupling energy (kT multiplied by LnΩ, where k is the Boltzmann constant and T is temperature in Kelvin). LnΩ was calculated by Eq. (2) as[51]2 LnΩ=LnKd_1⋅Kd_4/Kd_2⋅Kd_3.
# [1] = biological target: T2, TRPM8 point mutants at sites 840, 910, 916, 972 (Mus musculus, UniProt Q8R4D5); test: Φ analysis based on single-channel recordings; format: cell-based
# T2 construct: expressed in transfected cells; host or cells: HEK293T
# T2 sequence (Q8R4D5 whole entry, change not shown): as the sequence (Q8R4D5 whole entry R842K) above, with K842R counted along it
# Procedure: as §1
# (§2) We followed the principle of Φ-analysis described in published literatures in detail[17],[36],[48]. […] At such a high concentration, only the patches showing the activities of one channel was used for analysis. Single-channel data were processed by the QuB software[49] version 1.4 (ref. [50]). Opening and closing events were detected during idealization with the half amplitude method. Using the simple close ↔ open model (Fig. 6a), the forward and backward rates were determined with a deadtime of 0.3-to-0.4 ms. The equilibrium constant was calculated as the ratio of forward and backward rates. Opening rates and equilibrium constants for each mutant at the same residue site were plotted in log scale (Brønsted plot) before fitting with a linear function to determine the Φ value.
# [2] = biological target: T3, TRPM8 point mutants at sites 840, 910, 916, 972 (Mus musculus, UniProt Q8R4D5, A910G); test: Φ analysis based on single-channel recordings; format: cell-based; conditions: TRPM8 910G, mean of single-channel recordings (200u, 500u, 1mM)
# T3 construct: expressed in transfected cells; host or cells: HEK293T
# T3 sequence (Q8R4D5 whole entry A910G): as the sequence (Q8R4D5 whole entry R842K) above, with K842R, A910G counted along it
# Procedure: as §1, §2
# [3] = biological target: T4, TRPM8 point mutants at sites 840, 910, 916, 972 (Mus musculus, UniProt Q8R4D5, A910I); test: Φ analysis based on single-channel recordings; format: cell-based; conditions: TRPM8 910I, mean of single-channel recordings (1mM)
# T4 construct: expressed in transfected cells; host or cells: HEK293T
# T4 sequence (Q8R4D5 whole entry A910I): as the sequence (Q8R4D5 whole entry R842K) above, with K842R, A910I counted along it
# Procedure: as §1, §2
# [4] = biological target: T5, TRPM8 point mutants at sites 840, 910, 916, 972 (Mus musculus, UniProt Q8R4D5, P916F); test: Φ analysis based on single-channel recordings; format: cell-based; conditions: TRPM8 916F, mean of single-channel recordings
# T5 construct: expressed in transfected cells; host or cells: HEK293T
# T5 sequence (Q8R4D5 whole entry P916F): as the sequence (Q8R4D5 whole entry R842K) above, with K842R, P916F counted along it
# Procedure: as §1, §2
# [5] = biological target: T6, TRPM8 point mutants at sites 840, 910, 916, 972 (Mus musculus, UniProt Q8R4D5, T840D); test: Φ analysis based on single-channel recordings; format: cell-based; conditions: TRPM8 840D, mean of single-channel recordings (500um, 1mM)
# T6 construct: expressed in transfected cells; host or cells: HEK293T
# T6 sequence (Q8R4D5 whole entry T840D): as the sequence (Q8R4D5 whole entry R842K) above, with T840D, K842R counted along it
# Procedure: as §1, §2
# [6] = biological target: T7, TRPM8 point mutants at sites 840, 910, 916, 972 (Mus musculus, UniProt Q8R4D5, T840N); test: Φ analysis based on single-channel recordings; format: cell-based; conditions: TRPM8 840N, mean of single-channel recordings (1mM, 5mM)
# T7 construct: expressed in transfected cells; host or cells: HEK293T
# T7 sequence (Q8R4D5 whole entry T840N): as the sequence (Q8R4D5 whole entry R842K) above, with T840N, K842R counted along it
# Procedure: as §1, §2
# [7] = biological target: T8, TRPM8 point mutants at sites 840, 910, 916, 972 (Mus musculus, UniProt Q8R4D5, V972I); test: Φ analysis based on single-channel recordings; format: cell-based; conditions: TRPM8 972I, mean of single-channel recordings
# T8 construct: expressed in transfected cells; host or cells: HEK293T
# T8 sequence (Q8R4D5 whole entry V972I): as the sequence (Q8R4D5 whole entry R842K) above, with K842R, V972I counted along it
# Procedure: as §1, §2
# [8] = tested on: TRPM8 point mutants at sites 840, 910, 916, 972; test: Φ analysis based on single-channel recordings; format: cell-based, mouse; conditions: for Φ value: 5 mM menthol, single-channel, +80 mV
# Procedure: as §1, §2
# [9] = TRPM8 840T (recordings 1S-AF/2S-AF, 500um, 1mM)
# [10] = TRPM8 910A (recordings 1S-AF/2S-AF, 500um, 1mM)
# [11] = TRPM8 916P (recordings 1S-AF/2S-AF, 500um, 1mM)
# [12] = TRPM8 972V (recordings 1S-AF/2S-AF, 500um, 1mM)
# [13] = TRPM8 840A, mean of single-channel recordings (500um)
# [14] = TRPM8 910T, mean of single-channel recordings (1mM, 5mM)
# [15] = TRPM8 972L, mean of single-channel recordings
smiles,measurement,setting,value
"CC(C)[C@@H]1CC[C@@H](C)C[C@H]1O [menthol, (−)-menthol]","L (equilibrium constant between closed and open states upon ligand binding), Ave",TRPM8 R842K,18.3882
same,"L, single recording",TRPM8 R842K,24.6476 and 13.2288 and 17.2882
same,"concentration–response curve value, ave",TRPM8 R842K; 20 microM,0.01439
same,"concentration–response curve value, ave",TRPM8 R842K; 100 microM,0.2373
same,"concentration–response curve value, single recording",TRPM8 R842K; 100 microM,0.2375 and 0.1865 and 0.1541 and 0.2977 and 0.2927 and 0.2 and 0.2925
same,"concentration–response curve value, ave",TRPM8 R842K; 500 microM,0.6774
same,"concentration–response curve value, single recording",TRPM8 R842K; 500 microM,0.6802 and 0.7221 and 0.591 and 0.6718 and 0.7751 and 0.601 and 0.7009
same,"concentration–response curve value, ave",TRPM8 R842K; 1000 microM,0.8246
same,"concentration–response curve value, single recording",TRPM8 R842K; 1000 microM,0.892 and 0.8781 and 0.8012 and 0.8485 and 0.8182 and 0.7917 and 0.7425
same,"concentration–response curve value, ave",TRPM8 R842K; 2000 microM,0.8146
same,"concentration–response curve value, single recording",TRPM8 R842K; 2000 microM,0.9219 and 0.8808 and 0.8026 and 0.7789 and 0.777 and 0.8121 and 0.7292
same,Kd,"TRPM8 R842K; calculated from concentration–response curves, read-out: Kd, Ave",8.71 mM
same,Kd,"TRPM8 R842K; read-out: Kd, single recording",8.48 mM and 6.83 mM and 10.8 mM
same,logKeqave,[1]; [9],-0.1349
same,ratesave (mean log forward rates),[1]; [9],2.916
same,logKeqave,[1]; [10],-0.1349
same,ratesave (mean log forward rates),[1]; [10],2.916
same,logKeqave,[1]; [11],-0.1349
same,logratesave,[1]; [11],2.916
same,logKeqave,[1]; [12],-0.1349
same,logratesave,[1]; [12],2.916
same,logKeqave,[2],-0.02911
same,ratesave (mean log forward rates),[2],2.893
same,logKeqave,[3],-1.154
same,ratesave (mean log forward rates),[3],2.135
same,logKeqave,[4],0.4532
same,logratesave,[4],3.166
same,logKeqave,[5],0.4314
same,ratesave (mean log forward rates),[5],3.1375
same,logKeqave,[6],0.1255
same,ratesave (mean log forward rates),[6],3.014
same,logKeqave,[7],-0.5254
same,logKeqave,[8]; [13],-0.9923
same,ratesave (mean log forward rates),[8]; [13],2.126
same,logKeqave,[8]; [14],0.1885
same,ratesave (mean log forward rates),[8]; [14],3.0067
same,logKeqave,[8]; [15],0.4054
same,logratesave,[8]; [15],3.126
same,phi from single-channel recording,[8]; site 840,0.7339
same,Φ value,[8]; site 840,0.73
same,phi from single-channel recording,[8]; site 910,0.6331
same,Φ value,[8]; site 910,0.63
same,phi from single-channel recording,[8]; site 916,0.4253
same,Φ value,[8]; site 916,0.42
same,phi from single-channel recording,[8]; site 972,0.711
same,Φ value,[8]; site 972,0.71
